Measurements from patent publication US20250064983A1, “COMPOSITIONS AND METHODS FOR TREATING A CARDIAC DISEASE” (The Children's Medical Center Corporation, priority 2022, published 2025).
“Also recorded” adds a separate entry of the source.

Legend:
CaMKII = test: phosphorylation of phospholamban (PLB) at threonine-17 in whole heart lysates exposed to isoproterenol; assay type: in vivo, mouse; details: exposed to isoproterenol (ISO), FIG. 3
Procedure: FIG. 3 provides a chart, a capillary Western image, and a plot showing the effects of the indicated constructs, which are described in FIG. 2D, on CaMKII activity in vivo. To confirm suppression of CaMKII activation in vivo, phosphorylation of phospholamban (PLB) at threonine-17, a known target of CaMKII, was analyzed from whole heart lysates. The middle panel of FIG. 3 provides a capillary Western image showing glyceraldehyde-3-phosphate dehydrogenase polypeptide (GAPDH) expression in cells contacted (+) or not contacted (−) with isoproterenol (ISO), as well as the levels of phosphorylated PLB (pPLB) and non-phosphorylated PLB (PLB). The right panel of FIG. 3 provides a plot showing the ratio of pPLB to PLB in hearts treated with no ISO or with ISO and mCherry (the “ISO” sample), AIP, AIP×5, AIP-FKBP12.6, CN19o, CN19oX3, or CN19o-FKBP12.6, which are described in FIG. 2D.
To confirm suppression of CaMKII activation in vivo, phosphorylation of phospholamban (PLB) at threonine-17, a known target of CaMKII, was evaluated in heart tissue from mice and whole heart lysates exposed to isoproterenol (ISO) (FIG. 3). Exposure of cardiac cells to ISO induced phosphorylation of PLB by CaMKII (FIG. 3).

LKB Flox/Flox mice = test: Example 4: beat to beat variation in LKB Flox/Flox mice with NPPA-Cre (atrial fibrillation model); assay type: in vivo, mouse; details: co-injection of NPPA-Cre and AIP×5-mcherry AAV; 2, 4 and 6 weeks
Procedure: FIGS. 7A and 7B provide plots showing the impact of AIP×5 administration on atrial fibrillation in a mouse model. LKB Flox/Flox mice were double injected with AAV-NPPA-Cre and AAV-AIP×5-mcherry (see FIG. 6). FIG. 7A provides plots showing results from an experiment where mice positive for the LKB1 flanked by LoxP sites (LKB1flox/flox) were injected with either AAV9-NPPA-RFP, AAV9-NPPA-Cre or double injections of AAV9-NPPA-Cre+AAV9-cTnT-AIP×5 at post-natal day 3 (P3). At two week intervals, ECG recordings for 3 minutes were performed under anesthesia. The time difference between two QRS complexes (RR interval) was plotted as a function of the following interval (RR+1). FIG. 7B provides a plot where the standard deviation of the RR intervals for a 1 minute recording was calculated for each animal at the time points shown.
Experiments were undertaken to evaluate the efficacy of AIP×5 administration in treatment of atrial fibrillation. LKB Flox/Flox mice were double injected with NPPA-Cre and AIP×5-mcherry using an AAV vector. The mice were a model for atrial fibrillation. […] It was evaluated whether co-injection with AAV-AIP×5 would reduce AF. Beat to beat variation in HR, an index of AF frequency, was analyzed by plotting each RR interval (R) versus the RR interval of the subsequent beat (RI) (n=˜500 beats) (FIG. 7A). […] HR beat to beat variation was analyzed at 2 weeks, 4 weeks, and 6 weeks.

[1] = tested on: RYR2^R4650I/WT mouse model of CPVT; test: ectopy and induced VT in RYR2^R4650I/WT mouse model of CPVT, AAV delivery; assay type: in vivo
Description: FIGS. 2A-2G provide plots, a protein structure, schematics, a bar graph, and images showing how a therapeutic cargo containing a CaMKII inhibitor was optimized to treat catecholaminergic polymorphic ventricular tachycardia (CPVT) through altering potency, binding, and/or multimerization of the CaMKII inhibitor. FIG. 2A provides plots showing the IC50 concentrations for the autocamtide-2-related inhibitory peptide (AIP) and CN19o (Coultrap, et al. “Improving a Natural CaMKII Inhibitor by Random and Rational Design,” PLoS One, Oct. 3, 2011, doi.org/10.1371/journal.pone.0025245; and Ishida, et al, “Critical amino acid residues of AIP, a highly specific inhibitory peptide of calmodulin-dependent protein kinase II,” FEBS Letters, 427:115-118 (1998), the disclosures of which is incorporated herein by reference in its entirety for all purposes). […]
The development of improved agents for the treatment of CPVT, the CPVT treatment efficacy of polypeptides A) containing multiple repeats of AIP (FIG. 2C) or the potent CaMKII inhibitor CN19o or B) containing AIP or CN19o fused to FKBP12.6 (FIG. 2B), which binds RYR2, which is a target of CaMKII (FIG. 1A). […] The efficacy of the polypeptides in treatment of catecholaminergic polymorphic ventricular tachycardia (CPVT) was evaluated in the RYR2^R4650I/WT mouse model of CPVT as shown in FIG. 2D. […]

## YKKALHRQEAVDALYKKALHRQEAVDALYKKALHRQEAVDALYKKALHRQEAVDALYKKALHRQEAVDAL [AIP×5]
CaMKII
  PLB phosphorylation (pPLB to PLB): statistically significant decrease in PLB phosphorylation
LKB Flox/Flox mice
  symptoms of AF (beat to beat variation of RR interval): effective in reducing symptoms of AF
[1]; AAV vector (FIG. 2F)
  percent of mice that showed induced ventricular tachycardia (VT): reduction in instances of induced VT
[1]; RYR2^R4650I/WT mice, AAV vector (FIG. 2E, 2F)
  percent ectopy / CPVT treatment efficacy: greatest reduction in instances of ectopy; also recorded: most effective in treating CPVT
